Assay results from PubChem BioAssay (NCI).
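Test compounds were applied to cells in 96-well plates for 48 hours at 5 doses. Here, GI50 denotes the concentration required for 50% inhibition of growth. TGI: concentration producing complete growth inhibition.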

How the values were obtained:
Test in all cases: growth of human tumour cells (NCI), 48 h
A498 renal = system: A498 renal
EKVX NSCLC = system: EKVX NSCLC
HCT-15 colon = system: HCT-15 colon
MCF7 breast = system: MCF7 breast
NCI-H23 lung = system: NCI-H23 lung
NCI-H522 lung = system: NCI-H522 lung
SK-MEL-5 melanoma = system: SK-MEL-5 melanoma
SW-620 colon = system: SW-620 colon
TK-10 renal = system: TK-10 renal
U251 CNS = system: U251 CNS

## O=[N+]([O-])c1ccc(/C=C\c2ccc3c(c2)OCO3)c([N+](=O)[O-])c1
A498 renal
  TGI: 46.7 µM
EKVX NSCLC
  TGI: 28.1 µM
HCT-15 colon
  TGI: 37.3 µM
MCF7 breast
  TGI: 8.58 µM
NCI-H23 lung
  TGI: 48.6 µM
NCI-H522 lung
  TGI: 25.6 µM
SK-MEL-5 melanoma
  TGI: 38.9 µM
SW-620 colon
  TGI: 41.6 µM
TK-10 renal
  TGI: 46.3 µM
U251 CNS
  TGI: 28.9 µM

## O=C(/C=C/c1cccc(Oc2ccc(Cl)cc2)c1)c1ccccc1
A498 renal
  GI50: 163 µM
  TGI: 312 µM
EKVX NSCLC
  GI50: 104 µM
  TGI: 261 µM
HCT-15 colon
  GI50: 18.7 µM
  TGI: 44.6 µM
MCF7 breast
  GI50: 26.9 µM
  TGI: 118 µM
NCI-H23 lung
  GI50: 80.7 µM
  TGI: 266 µM
NCI-H522 lung
  GI50: 67.1 µM
  TGI: 246 µM
SK-MEL-5 melanoma
  GI50: 36 µM
  TGI: 127 µM
SW-620 colon
  GI50: 22.6 µM
  TGI: 49.4 µM
TK-10 renal
  GI50: 192 µM
  TGI: 342 µM
U251 CNS
  GI50: 21.1 µM
  TGI: 42 µM

## CN(c1ccc(NC(=O)NCCN2CCOCC2)cc1)c1ccnc(Nc2ccc(CS(C)(=O)=O)cc2)n1
A498 renal
  GI50: > 25 µM
  TGI: > 25 µM
EKVX NSCLC
  GI50: > 25 µM
  TGI: > 25 µM
HCT-15 colon
  GI50: > 25 µM
  TGI: > 25 µM
MCF7 breast
  GI50: > 21.7 µM
  TGI: > 25 µM
NCI-H23 lung
  GI50: > 25 µM
  TGI: > 25 µM
NCI-H522 lung
  GI50: > 25 µM
  TGI: > 25 µM
SK-MEL-5 melanoma
  GI50: > 25 µM
  TGI: > 25 µM
SW-620 colon
  GI50: > 25 µM
  TGI: > 25 µM
TK-10 renal
  GI50: > 25 µM
  TGI: > 25 µM
U251 CNS
  GI50: > 25 µM
  TGI: > 25 µM

## Cc1n(Cc2ccc3ccccc3n2)cc[n+]1Cc1ccc2ccccc2c1
A498 renal
  GI50: 1.84 µM
  TGI: 10.2 µM
EKVX NSCLC
  GI50: 2.17 µM
  TGI: 21 µM
HCT-15 colon
  GI50: 20.4 µM
  TGI: > 75.9 µM
MCF7 breast
  GI50: 0.526 µM
  TGI: 6.08 µM
NCI-H23 lung
  GI50: 0.935 µM
  TGI: 9.81 µM
NCI-H522 lung
  GI50: 0.312 µM
  TGI: 1.58 µM
SK-MEL-5 melanoma
  GI50: 0.533 µM
  TGI: 1.61 µM
SW-620 colon
  GI50: 1.82 µM
  TGI: 13.3 µM
TK-10 renal
  GI50: 1.94 µM
  TGI: 7.96 µM
U251 CNS
  GI50: 0.384 µM
  TGI: 12.2 µM

## CCN(CC)CCS(=O)(=O)CCNc1ccnc2cc(Cl)ccc12
A498 renal
  GI50: 2.25 µM
  TGI: 8.28 µM
EKVX NSCLC
  GI50: 4.31 µM
  TGI: > 46.1 µM
HCT-15 colon
  GI50: 2.33 µM
  TGI: > 38.1 µM
MCF7 breast
  GI50: 1.86 µM
  TGI: > 33.8 µM
NCI-H23 lung
  GI50: 2.1 µM
  TGI: 14.9 µM
NCI-H522 lung
  GI50: 0.758 µM
  TGI: 2.11 µM
SK-MEL-5 melanoma
  GI50: 3.79 µM
  TGI: 10.4 µM
SW-620 colon
  GI50: 0.608 µM
  TGI: 12.5 µM
TK-10 renal
  GI50: 1.07 µM
  TGI: 4.3 µM
U251 CNS
  GI50: 3.17 µM
  TGI: 13.9 µM

## C=C(C)[C@@H]1CC[C@]2(C(=O)n3ccnc3)CC[C@]3(C)[C@H](CC[C@@H]4[C@@]5(C)CCCNC(C)(C)[C@@H]5CC[C@]43C)[C@@H]12
A498 renal
  GI50: 10.4 µM
  TGI: 29.8 µM
EKVX NSCLC
  GI50: 1.74 µM
  TGI: 4.1 µM
HCT-15 colon
  GI50: 1.26 µM
  TGI: 2.64 µM
MCF7 breast
  GI50: 1.5 µM
  TGI: 3.23 µM
NCI-H23 lung
  GI50: 1.78 µM
  TGI: 3.89 µM
NCI-H522 lung
  GI50: 1.91 µM
  TGI: 3.71 µM
SK-MEL-5 melanoma
  GI50: 1.56 µM
  TGI: 2.9 µM
SW-620 colon
  GI50: 1.68 µM
  TGI: 3.39 µM
TK-10 renal
  GI50: 2.58 µM
  TGI: 6.82 µM
U251 CNS
  GI50: 1.7 µM
  TGI: 3.14 µM

## CCc1ccc(C2=NN(c3ccc(S(C)(=O)=O)cc3)C(=O)CC2)cc1
A498 renal
  GI50: 0.322 µM
  TGI: 4.46 µM
EKVX NSCLC
  GI50: 4.15 µM
  TGI: 98.4 µM
HCT-15 colon
  GI50: 1.38 µM
  TGI: > 100 µM
MCF7 breast
  GI50: 3.04 µM
  TGI: > 91.6 µM
NCI-H23 lung
  GI50: 1.85 µM
  TGI: > 24.3 µM
NCI-H522 lung
  GI50: 0.339 µM
  TGI: 8.37 µM
SK-MEL-5 melanoma
  GI50: 1.64 µM
  TGI: 11.1 µM
SW-620 colon
  GI50: 0.56 µM
  TGI: > 100 µM
TK-10 renal
  GI50: 8.31 µM
  TGI: > 100 µM
U251 CNS
  GI50: 1.83 µM
  TGI: > 100 µM

## Cc1cn2c(/C=C3/C(=O)Nc4ccc(C(=O)O)cc43)c(C)nc2s1
A498 renal
  GI50: > 100 µM
  TGI: > 100 µM
EKVX NSCLC
  GI50: > 100 µM
  TGI: > 100 µM
HCT-15 colon
  GI50: > 100 µM
  TGI: > 100 µM
MCF7 breast
  GI50: > 100 µM
  TGI: > 100 µM
NCI-H23 lung
  GI50: > 100 µM
  TGI: > 100 µM
NCI-H522 lung
  GI50: > 100 µM
  TGI: > 100 µM
SK-MEL-5 melanoma
  GI50: > 100 µM
  TGI: > 100 µM
SW-620 colon
  GI50: > 100 µM
  TGI: > 100 µM
TK-10 renal
  GI50: > 100 µM
  TGI: > 100 µM
U251 CNS
  GI50: > 100 µM
  TGI: > 100 µM

## O=c1c2ccccc2n2cnc3ccc(NCCNCCO)c1c32
A498 renal
  TGI: 6.96 µM
EKVX NSCLC
  TGI: 8.49 µM
HCT-15 colon
  TGI: 13.7 µM
MCF7 breast
  TGI: 9.62 µM
NCI-H23 lung
  TGI: 8.12 µM
NCI-H522 lung
  TGI: 6.2 µM
SK-MEL-5 melanoma
  TGI: 5.4 µM
SW-620 colon
  TGI: 5.11 µM
TK-10 renal
  TGI: 15.7 µM
U251 CNS
  TGI: 13.6 µM

## COc1cc(OC)c(/C=C/C(=O)c2c(N)cc(OC)cc2OC)c(OC)c1
A498 renal
  GI50: 0.463 µM
EKVX NSCLC
  GI50: 2.25 µM
  TGI: > 100 µM
HCT-15 colon
  GI50: 0.369 µM
  TGI: > 100 µM
MCF7 breast
  GI50: 0.395 µM
  TGI: > 100 µM
NCI-H23 lung
  GI50: 0.826 µM
  TGI: > 100 µM
NCI-H522 lung
  GI50: 0.234 µM
  TGI: 0.901 µM
SK-MEL-5 melanoma
  GI50: 0.332 µM
  TGI: > 100 µM
SW-620 colon
  GI50: 0.326 µM
  TGI: > 100 µM
TK-10 renal
  GI50: 6.64 µM
  TGI: > 100 µM
U251 CNS
  GI50: 0.504 µM
  TGI: > 100 µM

## C=CC[PH+](c1ccccc1)c1ccccc1.C=CC[PH+](c1ccccc1)c1ccccc1.[Pt+2].[S-]c1ncccn1.[S-]c1ncccn1
A498 renal
  GI50: 11.5 µM
  TGI: > 100 µM
EKVX NSCLC
  GI50: 26.9 µM
  TGI: > 100 µM
HCT-15 colon
  GI50: 2.94 µM
  TGI: 10.4 µM
MCF7 breast
  GI50: 4.8 µM
  TGI: > 100 µM
NCI-H23 lung
  GI50: 17.9 µM
  TGI: 59 µM
NCI-H522 lung
  GI50: 2.17 µM
  TGI: 5.78 µM
SK-MEL-5 melanoma
  GI50: 17.3 µM
  TGI: 38.5 µM
SW-620 colon
  GI50: 4.75 µM
  TGI: 29.7 µM
TK-10 renal
  GI50: 5.8 µM
  TGI: 46.2 µM
U251 CNS
  GI50: 23.4 µM
  TGI: > 100 µM
